Source: the supplement of paper PMC9663587

Experiments:
THZ1 = compound: CN(C)C/C=C/C(=O)Nc1ccc(C(=O)Nc2cccc(Nc3ncc(Cl)c(-c4c[nH]c5ccccc45)n3)c2)cc1 [THZ1]; assay: GR value, 72 h; higher = faster growth (1 = untreated, <0 = killing);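 also: breast cancer and non-malignant breast epithelial lines, nine half-log doses, viable cells counted by Hoechst and LIVE/DEAD dye imaging versus time-zero plates and DMSO controls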
[1] = compound: CCc1cnn2c(NCc3ccc[n+]([O-])c3)cc(N3CCCC[C@H]3CCO)nc12; assay: as above
[2] = compound: CCN1CCN(Cc2ccc(Nc3ncc(F)c(-c4cc(F)c5nc(C)n(C(C)C)c5c4)n3)nc2)CC1; assay: as above
BSJ-03-123 [3] = compound: T1, CC(=O)c1c(C)c2cnc(Nc3ccc(N4CCN(CCOCCOCCOCCNC(=O)COc5cccc6c5C(=O)N(C5CCC(=O)NC5=O)C6=O)CC4)cn3)nc2n(C2CCCC2)c1=O [BSJ-03-123]; assay: as above
YKL-5-124 = compound: C=CC(=O)Nc1ccc(C(=O)Nc2[nH]nc3c2CN(C(=O)N[C@H](CN(C)C)c2ccccc2)C3(C)C)cc1 [YKL-5-124]; assay: as above
THZ531 = compound: CN(C)C/C=C/C(=O)Nc1ccc(C(=O)N2CCC[C@@H](Nc3ncc(Cl)c(-c4c[nH]c5ccccc45)n3)C2)cc1 [THZ531]; assay: as above
LEE011/Ribociclib = compound: CN(C)C(=O)c1cc2cnc(Nc3ccc(N4CCNCC4)cn3)nc2n1C1CCCC1 [LEE011/Ribociclib]; assay: as above
Flavopiridol [4] = compound: T2, CN1CC[C@H](c2c(O)cc(O)c3c(=O)cc(-c4ccccc4Cl)oc23)[C@H](O)C1 [Flavopiridol]; assay: as above
BVD523 = compound: CC(C)Nc1cc(-c2c[nH]c(C(=O)N[C@H](CO)c3cccc(Cl)c3)c2)c(Cl)cn1 [BVD523]
R0-3306 = compound: C1=CC2=C(C=CC(=C2)C=C3C(=O)NC(=NCC4=CC=CS4)S3)N=C1 [R0-3306]
Paclitaxel = compound: CC(=O)O[C@H]1C(=O)[C@@]2(C)[C@H]([C@H](OC(=O)c3ccccc3)[C@]3(O)C[C@H](OC(=O)[C@H](O)[C@@H](NC(=O)c4ccccc4)c4ccccc4)C(C)=C1C3(C)C)[C@]1(OC(C)=O)CO[C@@H]1C[C@@H]2O [Paclitaxel]
[5] = compound: CCC1=CN=CN=C1N2CCN(CC2)CC3=NC4=C(N3)C=C(C=C4)C(F)(F)F
BSJ-03-123 [6] = compound: T1, BSJ-03-123
AZD5363 = compound: NC1(C(=O)N[C@@H](CCO)c2ccc(Cl)cc2)CCN(c2nc[nH]c3nccc2-3)CC1 [AZD5363]
[7] = compound: CO[C@@H](C)Cn1c(=O)n(C)c2cnc3ccc(-c4cncc(C(C)(C)O)c4)cc3c21
Neratinib/HKI272 = compound: CCOc1cc2ncc(C#N)c(Nc3ccc(OCc4ccccn4)c(Cl)c3)c2cc1NC(=O)/C=C/CN(C)C [Neratinib/HKI272]
Flavopiridol [8] = compound: T2, Flavopiridol
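For GR50, 72 h in this document: breast cancer and non-malignant breast epithelial cell lines, Deep Dye Drop or Dye Drop imaging, nine half-log doses, GR normalized to time-zero plates and DMSO-only controls.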

SUM159
GR value (THZ1; 0.0001 µM): 1.01 GR
GR value (THZ1; 0.0003162 µM): 0.974 GR
GR value (THZ1; 0.001 µM): 0.974 GR
GR value (THZ1; 0.003162 µM): 0.963 GR
GR value (THZ1; 0.01 µM): 0.99 GR
GR value (THZ1; 0.03162 µM): 0.955 GR
GR value (THZ1; 0.1 µM): 0.809 GR
GR value (THZ1; 0.3162 µM): 0.646 GR
GR value (THZ1; 1 µM): -0.112 GR
GR value ([1]; 0.0001 µM): 1.01 GR
GR value ([1]; 0.0003162 µM): 1.01 GR
GR value ([1]; 0.001 µM): 1.02 GR
GR value ([1]; 0.003162 µM): 1.02 GR
GR value ([1]; 0.01 µM): 0.937 GR
GR value ([1]; 0.03162 µM): -0.0092 GR
GR value ([1]; 0.1 µM): -0.0413 GR
GR value ([1]; 0.3162 µM): -0.0777 GR
GR value ([1]; 1 µM): -0.119 GR
GR value ([2]; 0.001 µM): 0.989 GR
GR value ([2]; 0.003162 µM): 0.962 GR
GR value ([2]; 0.01 µM): 0.897 GR
GR value ([2]; 0.03162 µM): 0.773 GR
GR value ([2]; 0.1 µM): 0.662 GR
GR value ([2]; 0.3162 µM): 0.558 GR
GR value ([2]; 1 µM): 0.405 GR
GR value ([2]; 3.162 µM): 0.308 GR
GR value ([2]; 10 µM): -0.0742 GR
GR value (BSJ-03-123 [3]; 0.001 µM): 0.918 GR
GR value (BSJ-03-123 [3]; 0.003162 µM): 0.925 GR
GR value (BSJ-03-123 [3]; 0.01 µM): 0.897 GR
GR value (BSJ-03-123 [3]; 0.03162 µM): 0.826 GR
GR value (BSJ-03-123 [3]; 0.1 µM): 0.826 GR
GR value (BSJ-03-123 [3]; 0.3162 µM): 0.797 GR
GR value (BSJ-03-123 [3]; 1 µM): 0.687 GR
GR value (BSJ-03-123 [3]; 3.162 µM): 0.526 GR
GR value (BSJ-03-123 [3]; 10 µM): -0.042 GR
GR value (YKL-5-124; 0.001 µM): 0.554 GR
GR value (YKL-5-124; 0.003162 µM): 0.292 GR
GR value (YKL-5-124; 0.01 µM): 0.169 GR
GR value (YKL-5-124; 0.03162 µM): 0.149 GR
GR value (YKL-5-124; 0.1 µM): 0.136 GR
GR value (YKL-5-124; 0.3162 µM): 0.0731 GR
GR value (YKL-5-124; 1 µM): 0.0819 GR
GR value (YKL-5-124; 3.162 µM): 0.0501 GR
GR value (YKL-5-124; 10 µM): -0.146 GR
GR value (THZ531; 0.0001 µM): 0.957 GR
GR value (THZ531; 0.0003162 µM): 0.95 GR
GR value (THZ531; 0.001 µM): 0.98 GR
GR value (THZ531; 0.003162 µM): 0.972 GR
GR value (THZ531; 0.01 µM): 0.974 GR
GR value (THZ531; 0.03162 µM): 1.03 GR
GR value (THZ531; 0.1 µM): 0.979 GR
GR value (THZ531; 0.3162 µM): 0.965 GR
GR value (THZ531; 1 µM): 0.61 GR
GR value (LEE011/Ribociclib; 0.001 µM): 0.942 GR
GR value (LEE011/Ribociclib; 0.003162 µM): 0.892 GR
GR value (LEE011/Ribociclib; 0.01 µM): 0.835 GR
GR value (LEE011/Ribociclib; 0.03162 µM): 0.814 GR
GR value (LEE011/Ribociclib; 0.1 µM): 0.786 GR
GR value (LEE011/Ribociclib; 0.3162 µM): 0.73 GR
GR value (LEE011/Ribociclib; 1 µM): 0.769 GR
GR value (LEE011/Ribociclib; 3.162 µM): 0.63 GR
GR value (LEE011/Ribociclib; 10 µM): 0.449 GR
GR value (Flavopiridol [4]; 0.0001 µM): 1.01 GR
GR value (Flavopiridol [4]; 0.0003162 µM): 0.998 GR
GR value (Flavopiridol [4]; 0.001 µM): 0.973 GR
GR value (Flavopiridol [4]; 0.003162 µM): 0.925 GR
GR value (Flavopiridol [4]; 0.01 µM): 0.941 GR
GR value (Flavopiridol [4]; 0.03162 µM): 0.885 GR
GR value (Flavopiridol [4]; 0.1 µM): 0.631 GR
GR value (Flavopiridol [4]; 0.3162 µM): 0.132 GR
GR value (Flavopiridol [4]; 1 µM): -0.0516 GR
GR50, 72 h (BVD523): 1.91 µM
GR50, 72 h (R0-3306): 7.13 µM
GR50, 72 h (Paclitaxel): 0.00542 µM
GR50, 72 h [5]: > 10 µM
GR50, 72 h (BSJ-03-123 [6]): 1.94 µM
GR50, 72 h (AZD5363): 9.8 µM
GR50, 72 h [7]: 0.00127 µM
GR50, 72 h (Neratinib/HKI272): > 3.16 µM
GR50, 72 h (Flavopiridol [8]): 0.127 µM

UACC893
GR value (THZ1; 0.0001 µM): 0.991 GR
GR value (THZ1; 0.0003162 µM): 1.12 GR
GR value (THZ1; 0.001 µM): 1.07 GR
GR value (THZ1; 0.003162 µM): 0.882 GR
GR value (THZ1; 0.01 µM): 0.669 GR
GR value (THZ1; 0.03162 µM): 0.149 GR
GR value (THZ1; 0.1 µM): -0.241 GR
GR value (THZ1; 0.3162 µM): -0.397 GR
GR value (THZ1; 1 µM): -0.517 GR
GR value ([1]; 0.0001 µM): 0.963 GR
GR value ([1]; 0.0003162 µM): 0.894 GR
GR value ([1]; 0.001 µM): 1 GR
GR value ([1]; 0.003162 µM): 0.997 GR
GR value ([1]; 0.01 µM): 0.865 GR
GR value ([1]; 0.03162 µM): -0.169 GR
GR value ([1]; 0.1 µM): -0.503 GR
GR value ([1]; 0.3162 µM): -0.612 GR
GR value ([1]; 1 µM): -0.649 GR
GR value ([2]; 0.001 µM): 0.682 GR
GR value ([2]; 0.003162 µM): 0.508 GR
GR value ([2]; 0.01 µM): 0.42 GR
GR value ([2]; 0.03162 µM): 0.344 GR
GR value ([2]; 0.1 µM): 0.305 GR
GR value ([2]; 0.3162 µM): 0.272 GR
GR value ([2]; 1 µM): 0.262 GR
GR value ([2]; 3.162 µM): 0.241 GR
GR value ([2]; 10 µM): -0.088 GR
GR value (BSJ-03-123 [3]; 0.001 µM): 0.933 GR
GR value (BSJ-03-123 [3]; 0.003162 µM): 0.792 GR
GR value (BSJ-03-123 [3]; 0.01 µM): 0.726 GR
GR value (BSJ-03-123 [3]; 0.03162 µM): 0.878 GR
GR value (BSJ-03-123 [3]; 0.1 µM): 0.644 GR
GR value (BSJ-03-123 [3]; 0.3162 µM): 0.502 GR
GR value (BSJ-03-123 [3]; 1 µM): 0.538 GR
GR value (BSJ-03-123 [3]; 3.162 µM): 0.498 GR
GR value (BSJ-03-123 [3]; 10 µM): 0.283 GR
GR value (YKL-5-124; 0.001 µM): 0.472 GR
GR value (YKL-5-124; 0.003162 µM): 0.473 GR
GR value (YKL-5-124; 0.01 µM): 0.363 GR
GR value (YKL-5-124; 0.03162 µM): 0.342 GR
GR value (YKL-5-124; 0.1 µM): 0.215 GR
GR value (YKL-5-124; 0.3162 µM): 0.246 GR
GR value (YKL-5-124; 1 µM): 0.219 GR
GR value (YKL-5-124; 3.162 µM): 0.119 GR
GR value (YKL-5-124; 10 µM): -0.629 GR
GR value (THZ531; 0.0001 µM): 1.05 GR
GR value (THZ531; 0.0003162 µM): 1.05 GR
GR value (THZ531; 0.001 µM): 0.907 GR
GR value (THZ531; 0.003162 µM): 1.06 GR
GR value (THZ531; 0.01 µM): 1.08 GR
GR value (THZ531; 0.03162 µM): 0.743 GR
GR value (THZ531; 0.1 µM): -0.298 GR
GR value (THZ531; 0.3162 µM): -0.396 GR
GR value (THZ531; 1 µM): -0.421 GR
GR value (LEE011/Ribociclib; 0.001 µM): 0.564 GR
GR value (LEE011/Ribociclib; 0.003162 µM): 0.501 GR
GR value (LEE011/Ribociclib; 0.01 µM): 0.497 GR
GR value (LEE011/Ribociclib; 0.03162 µM): 0.461 GR
GR value (LEE011/Ribociclib; 0.1 µM): 0.494 GR
GR value (LEE011/Ribociclib; 0.3162 µM): 0.422 GR
GR value (LEE011/Ribociclib; 1 µM): 0.473 GR
GR value (LEE011/Ribociclib; 3.162 µM): 0.48 GR
GR value (LEE011/Ribociclib; 10 µM): 0.484 GR
GR value (Flavopiridol [4]; 0.0001 µM): 1.02 GR
GR value (Flavopiridol [4]; 0.0003162 µM): 0.977 GR
GR value (Flavopiridol [4]; 0.001 µM): 0.945 GR
GR value (Flavopiridol [4]; 0.003162 µM): 0.821 GR
GR value (Flavopiridol [4]; 0.01 µM): 0.866 GR
GR value (Flavopiridol [4]; 0.03162 µM): 0.822 GR
GR value (Flavopiridol [4]; 0.1 µM): 0.609 GR
GR value (Flavopiridol [4]; 0.3162 µM): 0.0303 GR
GR value (Flavopiridol [4]; 1 µM): -0.465 GR
GR50, 72 h (BVD523): 0.868 µM
GR50, 72 h (R0-3306): 9.24 µM
GR50, 72 h (Paclitaxel): 0.00216 µM
GR50, 72 h [5]: 6.76 µM
GR50, 72 h (BSJ-03-123 [6]): 1.46 µM
GR50, 72 h (AZD5363): 0.0291 µM
GR50, 72 h [7]: 0.00107 µM
GR50, 72 h (Neratinib/HKI272): 0.00274 µM
GR50, 72 h (Flavopiridol [8]): 0.117 µM
